Bounds are passed on as bounds.

One test has as its target T1, Gal4-RORγ-LBD (Homo sapiens, UniProt P51449).
T1 construct: expressed in transfected cells; host or cells: HEK-293 cells (pcDNA3.1neo plasmid)
T1 sequence (P51449 269-508 limits assumed): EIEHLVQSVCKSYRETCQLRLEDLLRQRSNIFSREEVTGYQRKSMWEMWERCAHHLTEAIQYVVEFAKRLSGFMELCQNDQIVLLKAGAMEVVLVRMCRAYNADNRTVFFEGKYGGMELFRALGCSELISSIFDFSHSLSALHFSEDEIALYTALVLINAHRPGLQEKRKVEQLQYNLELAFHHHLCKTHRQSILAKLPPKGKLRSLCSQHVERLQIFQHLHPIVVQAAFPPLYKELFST
The experiment in a line: Gal4-RORγ Luciferase Reporter Assay in HEK-293T Cells. It is filed as cell-based. The conditions noted are these: HEK-293 cells. The procedure, abridged: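 Luminescence read-out (One-Glo, 10 min RT) after overnight compound exposure at 37 °C in HEK-293 cells carrying Gal4-RORγ-LBD plus a Gal4-luciferase reporter, in the presence of 2 μM ursolic acid. Max Response is the upper plateau from a 4-parameter logistic fit, normalized to untreated signal = 100.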

The target in a further test is T2, RORγ-LBD (Homo sapiens, UniProt P51449).
T2 construct: made in house; host or cells: SF9 cells (baculovirus)
T2 sequence (P51449 269-508 limits assumed): T1 sequence (P51449 269-508 limits assumed)
The experiment in a line: RORγ-Ligand Binding Domain (LBD) TR-FRET Assay.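 For TR-FRET Assay Max Response: 665/615 nm ratio relative to signal without ursolic acid or compound set at 100.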 In kind it is biochemical. Put shortly:
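TR-FRET read-out using a biotin-tagged SRC1 coactivator LXXLL peptide (200 nM final), with the antagonist ursolic acid present at 2 μM final. Receptor is His-tagged LBD expressed in SF9 cells, ~3 nM final in pH 7.0 Tris/KCl/EDTA/DTT/BSA buffer; compounds in 1% DMSO final.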

[1] abbreviates: luciferase reporter, with 2 μM ursolic acid.

On to `O=C(O)CC[C@H]1CN(S(=O)(=O)c2cccc(C(F)(F)F)c2)c2cc(-c3cc(F)cc(Cl)c3F)ccc2O1` [Compound 4AY, (S)-3-(6-(3-chloro-2,5-difluorophenyl)-4-((3-(trifluoromethyl)phenyl)-sulfonyl)-3,4-dihydro-2H-benzo[b][1,4]oxazin-2-yl)propanoic acid], for which, on Gal4-RORγ-LBD (setting [1]), the EC50 was < 500 nM and the “Gal4-RORγ Assay Max Response” value is “** (The symbol “**” indicates a value in the range of greater than 90 to 150)”. Further, at RORγ-LBD, the 50% effective concentration (EC50) was < 500 nM and the “TR-FRET Assay Max Response” value is “*** (The symbol “***” indicates a value in the range of greater than 150 to 200)”.
As for `C=CCC(=O)NC[C@H]1CN(S(=O)(=O)c2cccc(C(F)(F)F)c2)c2cc(-c3cc(F)ccc3F)ccc2O1` [Compound 30AW, (S)-N-((6-(2,5-difluorophenyl)-4-((3-(trifluoromethyl)phenyl)-sulfonyl)-3,4-dihydro-2H-benzo[b][1,4]oxazin-2-yl)methyl)but-3-enamide], at Gal4-RORγ-LBD (setting [1]), the EC50 was < 500 nM and the “Gal4-RORγ Assay Max Response” value was “** (The symbol “**” indicates a value in the range of greater than 90 to 150)”. Moreover, at RORγ-LBD, the EC50 was < 500 nM and the “TR-FRET Assay Max Response” value was “*** (The symbol “***” indicates a value in the range of greater than 150 to 200)”.
On to `CC(=O)NC(C)(C)C[C@H]1CN(S(=O)(=O)c2cccc(C(F)(F)F)c2)c2cc(-c3cc(F)ccc3F)ccc2O1` [Compound 30CV, (S)-N-(1-(6-(2,5-difluoro-phenyl)-4-((3-(trifluoromethyl)-phenyl)sulfonyl)-3,4-dihydro-2H-benzo[b][1,4]oxazin-2-yl)-2-methylpropan-2-yl)acetamide], for which, on Gal4-RORγ-LBD (2 μM ursolic acid), the EC50 is < 500 nM and the “Gal4-RORγ Assay Max Response” value is given as “* (The symbol “*” indicates a value in the range of 25 to 90)”. Also, on RORγ-LBD, the EC50 was < 500 nM and the “TR-FRET Assay Max Response” value is “*** (The symbol “***” indicates a value in the range of greater than 150 to 200)”.
`COc1ncccc1-c1ccc2c(c1)N(S(=O)(=O)c1cccc(C(F)(F)F)c1)C[C@H](CCC(=O)O)O2` [Compound 2BG, (S)-3-(6-(2-methoxypyridin-3-yl)-4-((3-(trifluoromethyl)-phenyl)sulfonyl)-3,4-dihydro-2H-benzo[b][1,4]oxazin-2-yl)propanoic acid]: on Gal4-RORγ-LBD (setting [1]), the EC50 lay in the range of 500 to 5000 nM and the “Gal4-RORγ Assay Max Response” value is on record as “** (The symbol “**” indicates a value in the range of greater than 90 to 150)”. On RORγ-LBD, the EC50 was < 500 nM and the “TR-FRET Assay Max Response” value is reported as “*** (The symbol “***” indicates a value in the range of greater than 150 to 200)”.
Consider `CC(C)(C[C@H]1CN(S(=O)(=O)c2cccc(C(F)(F)F)c2)c2cc(-c3cc(Cl)cc(F)c3Cl)ccc2O1)C(=O)O` [Compound 32AW, (S)-3-(6-(2,5-dichloro-3-fluoro-phenyl)-4-((3-(trifluoromethyl)-phenyl)sulfonyl)-3,4-dihydro-2H-benzo[b][1,4]oxazin-2-yl)-2,2-dimethylpropanoic acid], for which, at Gal4-RORγ-LBD (2 μM ursolic acid), the EC50 was < 500 nM and the “Gal4-RORγ Assay Max Response” value is recorded as “** (The symbol “**” indicates a value in the range of greater than 90 to 150)”. At RORγ-LBD, the concentration for a half-maximal effect (EC50) was < 500 nM and the “TR-FRET Assay Max Response” value is reported as “** (The symbol “**” indicates a value in the range of greater than 90 to 150)”.
As to `O=C(O)CC[C@H]1CN(S(=O)(=O)c2cccc(C(F)(F)F)c2)c2cc(-c3cccc(Cl)c3Cl)ccc2O1` [Compound 2AL, (S)-3-(6-(2,3-dichlorophenyl)-4-((3-(trifluoromethyl)phenyl)-sulfonyl)-3,4-dihydro-2H-benzo[b][1,4]oxazin-2-yl)propanoic acid], on Gal4-RORγ-LBD (setting [1]), the 50% effective concentration (EC50) was < 500 nM and the “Gal4-RORγ Assay Max Response” value is “*** (The symbol “***” indicates a value in the range of greater than 150 to 200)”. Besides, at RORγ-LBD, the half-maximal effective concentration (EC50) was < 500 nM and the “TR-FRET Assay Max Response” value was “**** (The symbol “****” indicates a value greater than 200)”.
For the molecule `N#CCC(=O)NC[C@H]1CN(S(=O)(=O)c2cccc(C(F)(F)F)c2)c2cc(-c3cc(F)ccc3F)ccc2O1` [Compound 30AP, (S)-2-cyano-N-((6-(2,5-difluoro-phenyl)-4-((3-(trifluoromethyl)-phenyl)sulfonyl)-3,4-dihydro-2H-benzo[b][1,4]oxazin-2-yl)methyl)acetamide], at Gal4-RORγ-LBD (setting [1]), the EC50 was < 500 nM and the “Gal4-RORγ Assay Max Response” value is “* (The symbol “*” indicates a value in the range of 25 to 90)”. Moreover, at RORγ-LBD, the concentration for a half-maximal effect (EC50) was < 500 nM and the “TR-FRET Assay Max Response” value was “*** (The symbol “***” indicates a value in the range of greater than 150 to 200)”.
For `O=C(O)[C@H]1C[C@@H]1[C@H]1CN(S(=O)(=O)c2cccc(C(F)(F)F)c2)c2cc(-c3cc(F)ccc3F)ccc2O1` [Compound 54, (1S,2S)-2-((S)-6-(2,5-difluorophenyl)-4-((3-(trifluoromethyl)phenyl)sulfonyl)-3,4-dihydro-2H-benzo[b][1,4]oxazin-2-yl)cyclopropane-1-carboxylic acid], at Gal4-RORγ-LBD (2 μM ursolic acid), the EC50 is 500 to 5000 nM and the “Gal4-RORγ Assay Max Response” value is on record as “** (The symbol “**” indicates a value in the range of greater than 90 to 150)”. On RORγ-LBD, the EC50 was < 500 nM and the “TR-FRET Assay Max Response” value is “** (The symbol “**” indicates a value in the range of greater than 90 to 150)”.
For `COc1cc(S(=O)(=O)N2C[C@H](CNC(=O)C(C)(C)O)Oc3ccc(-c4cc(F)ccc4F)cc32)ccc1F` [Compound 30Q, (S)-N-((6-(2,5-difluorophenyl)-4-((4-fluoro-3-methoxyphenyl)-sulfonyl)-3,4-dihydro-2H-benzo[b][1,4]oxazin-2-yl)methyl)-2-hydroxy-2-methylpropanamide], at Gal4-RORγ-LBD (setting [1]), the concentration giving a half-maximal response (EC50) is < 500 nM and the “Gal4-RORγ Assay Max Response” value is “* (The symbol “*” indicates a value in the range of 25 to 90)”. Moreover, at RORγ-LBD, the EC50 was < 500 nM and the “TR-FRET Assay Max Response” value was “**** (The symbol “****” indicates a value greater than 200)”.
`CC1(C(=O)NC[C@H]2CN(S(=O)(=O)c3cccc(C(F)(F)F)c3)c3cc(-c4cc(F)ccc4F)ccc3O2)CC1` [Compound 30AV, (S)-N-((6-(2,5-difluorophenyl)-4-((3-(trifluoromethyl)phenyl)-sulfonyl)-3,4-dihydro-2H-benzo[b][1,4]oxazin-2-yl)methyl)-1-methylcyclo-propane-1-carboxamide]: on Gal4-RORγ-LBD (setting [1]), the EC50 was < 500 nM and the “Gal4-RORγ Assay Max Response” value is on record as “* (The symbol “*” indicates a value in the range of 25 to 90)”. On RORγ-LBD, the EC50 was < 500 nM and the “TR-FRET Assay Max Response” value is “*** (The symbol “***” indicates a value in the range of greater than 150 to 200)”.
In the case of `CC(C)(C[C@H]1CN(S(=O)(=O)c2cccc(C(F)(F)F)c2)c2cc(-c3cc(Cl)cc(C(F)(F)F)c3)ccc2O1)C(=O)O` [Compound 32AB, (S)-3-(6-(3-chloro-5-(trifluoromethyl)phenyl)-4-((3-(trifluoromethyl)phenyl)sulfonyl)-3,4-dihydro-2H-benzo[b][1,4]oxazin-2-yl)-2,2-dimethylpropanoic acid], at Gal4-RORγ-LBD (2 μM ursolic acid), the half-maximal effective concentration (EC50) was < 500 nM and the “Gal4-RORγ Assay Max Response” value is on record as “** (The symbol “**” indicates a value in the range of greater than 90 to 150)”. Further, on RORγ-LBD, the EC50 was < 500 nM and the “TR-FRET Assay Max Response” value is “*** (The symbol “***” indicates a value in the range of greater than 150 to 200)”.
Consider `CC(C)(C#N)C(=O)NC[C@H]1CN(S(=O)(=O)c2cccc(C(F)(F)F)c2)c2cc(-c3cc(F)ccc3F)ccc2O1` [Compound 30AQ, (S)-2-cyano-N-((6-(2,5-difluoro-phenyl)-4-((3-(trifluoromethyl)-phenyl)sulfonyl)-3,4-dihydro-2H-benzo[b][1,4]oxazin-2-yl)methyl)-2-methylpropanamide], for which, at Gal4-RORγ-LBD (setting [1]), the EC50 is < 500 nM and the “Gal4-RORγ Assay Max Response” value was “* (The symbol “*” indicates a value in the range of 25 to 90)”. In addition, at RORγ-LBD, the EC50 was < 500 nM and the “TR-FRET Assay Max Response” value is “*** (The symbol “***” indicates a value in the range of greater than 150 to 200)”.
`O=C(O)CC[C@H]1CN(S(=O)(=O)c2cccc(C(F)(F)F)c2)c2cc(-c3ccc(Cl)cc3Cl)ccc2O1` [Compound 2AB, (S)-3-(6-(2,4-dichlorophenyl)-4-((3-(trifluoromethyl)phenyl)-sulfonyl)-3,4-dihydro-2H-benzo[b][1,4]oxazin-2-yl)propanoic acid]: on Gal4-RORγ-LBD (setting [1]), the half-maximal effective concentration (EC50) was > 10000 nM and the “Gal4-RORγ Assay Max Response” value is recorded as “** (The symbol “**” indicates a value in the range of greater than 90 to 150)”. Moreover, on RORγ-LBD, the half-maximal effective concentration (EC50) was < 500 nM and the “TR-FRET Assay Max Response” value is given as “**** (The symbol “****” indicates a value greater than 200)”.
In the same order, the values of `O=C(O)CC[C@H]1CN(S(=O)(=O)c2cccc(C(F)(F)F)c2)c2cc(-c3cc(C(F)(F)F)ccc3F)ccc2O1` [Compound 2O, (S)-3-(6-(2-fluoro-5-(trifluoromethyl)phenyl)-4-((3-(trifluoromethyl)phenyl)-sulfonyl)-3,4-dihydro-2H-benzo[b][1,4]oxazin-2-yl)propanoic acid] are < 500 nM, “*** (The symbol “***” indicates a value in the range of greater than 150 to 200)”, < 500 nM and “*** (The symbol “***” indicates a value in the range of greater than 150 to 200)”.

These data come from US10611740B2, “Aryl dihydro-2H-benzo[b][1,4]oxazine sulfonamide and related compounds for use as agonists of RORγ and the treatment of disease” (Lycera Corporation, priority 2015, dated 2020).
